Ten compounds from ChEMBL document CHEMBL1136616, “Carbonic anhydrase inhibitors: SAR and X-ray crystallographic study for the interaction of sugar sulfamates/sulfamides with isozymes I, II and IV” (Bioorg Med Chem Lett, 2003) can be followed below.

As usually defined, the Ki is a measure of affinity in units of concentration, obtained from inhibition or displacement. A higher Ki goes with lower affinity.

One experiment concerns the target T1, Carbonic anhydrase 4 (Bos taurus, UniProt Q95323).
T1 sequence (Q95323 whole entry): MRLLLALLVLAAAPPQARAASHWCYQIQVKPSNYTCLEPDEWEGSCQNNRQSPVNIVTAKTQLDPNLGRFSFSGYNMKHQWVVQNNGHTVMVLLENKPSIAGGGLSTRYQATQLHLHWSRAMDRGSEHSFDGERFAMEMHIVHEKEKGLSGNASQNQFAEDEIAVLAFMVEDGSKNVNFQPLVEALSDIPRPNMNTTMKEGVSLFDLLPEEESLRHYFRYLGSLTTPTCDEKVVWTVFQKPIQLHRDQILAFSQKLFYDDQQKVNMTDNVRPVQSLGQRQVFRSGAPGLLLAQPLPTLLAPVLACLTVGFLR

A further experiment concerns the target Carbonic anhydrase 2 (Homo sapiens, UniProt P00918).
A further experiment deals with Carbonic anhydrase 1 (Homo sapiens, UniProt P00915).
Sequence of Carbonic anhydrase 1 (P00915 whole entry): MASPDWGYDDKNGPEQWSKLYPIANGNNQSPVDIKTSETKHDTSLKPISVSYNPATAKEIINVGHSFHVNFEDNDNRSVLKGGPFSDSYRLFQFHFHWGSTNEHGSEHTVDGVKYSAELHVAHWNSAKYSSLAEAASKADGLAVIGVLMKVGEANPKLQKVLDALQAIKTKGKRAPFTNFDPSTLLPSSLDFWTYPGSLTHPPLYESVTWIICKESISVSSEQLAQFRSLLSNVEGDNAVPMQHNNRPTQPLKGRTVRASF

Description for Carbonic anhydrase 1: Inhibitory activity against human cloned carbonic anhydrase I (hCA I)
Description for Carbonic anhydrase 2: Inhibitory activity against human cloned carbonic anhydrase II (hCA II)
Description for Carbonic anhydrase 4: Inhibitory activity against carbonic anhydrase isolated from bovine lung microsome (bCA IV)

`CC1(C)OC[C@@H]2O[C@@]3(COC(=O)NS(N)(=O)=O)OC(C)(C)O[C@H]3[C@@H]2O1`: the Ki on Carbonic anhydrase 4 came to 0.13 µM; at Carbonic anhydrase 2, 0.071 µM; at Carbonic anhydrase 1 it was 1.2 µM.

Consider `NS(=O)(=O)O` [SULFAMATE], for which the affinity at Carbonic anhydrase 1, expressed as Ki, was 21 µM.

With `CC1(C)OC[C@@H]2O[C@@]3(C(=O)NNS(N)(=O)=O)OC(C)(C)O[C@H]3[C@@H]2O1`, the Ki on Carbonic anhydrase 4 amounted to 33 µM; on Carbonic anhydrase 2, 21 µM; on Carbonic anhydrase 1, 420 µM.

As for `CC1(C)O[C@@H]2O[C@@H](C(=O)NS(N)(=O)=O)[C@H]3OC(C)(C)O[C@H]3[C@@H]2O1`, the figures for the Ki at Carbonic anhydrase 4, at Carbonic anhydrase 2 and at Carbonic anhydrase 1 were 46 µM, 25 µM and over 100 µM, respectively.

With `CC1(C)O[C@@H]2O[C@@H](COS(N)(=O)=O)[C@H]3OC(C)(C)O[C@H]3[C@@H]2O1`, the Ki at Carbonic anhydrase 4 worked out at 27 µM; on Carbonic anhydrase 2, 13 µM; on Carbonic anhydrase 1 it was 400 µM.

Consider `CC1(C)O[C@H]2[C@@H](O1)[C@@H](C(=O)NNS(N)(=O)=O)O[C@@H]1OC(C)(C)O[C@@H]12`, for which the Ki was 30 µM on Carbonic anhydrase 4, 15 µM on Carbonic anhydrase 2 and over 100 µM at Carbonic anhydrase 1.

In the case of `CC1(C)OC[C@@H]2O[C@@]3(C(=O)NS(N)(=O)=O)OC(C)(C)O[C@H]3[C@@H]2O1`, the Ki on Carbonic anhydrase 4 came out at 0.425 µM; at Carbonic anhydrase 2 it was 0.068 µM; on Carbonic anhydrase 1 it was 0.75 µM.

As to `CC1(C)O[C@@H]2[C@@H](CO[C@@]3(C(=O)NNS(N)(=O)=O)OC(C)(C)O[C@@H]23)O1`, the Ki on Carbonic anhydrase 4, on Carbonic anhydrase 2 and at Carbonic anhydrase 1 was over 100 µM in each case.

Consider `CC1(C)O[C@@H]2[C@@H](CO[C@@]3(COC(=O)NS(N)(=O)=O)OC(C)(C)O[C@@H]23)O1`, for which the Ki on Carbonic anhydrase 4 was determined as 0.045 µM; at Carbonic anhydrase 2 it was 0.024 µM; on Carbonic anhydrase 1 it was 0.42 µM.

For `CC1(C)O[C@@H]2[C@@H](CO[C@@]3(C(=O)NS(N)(=O)=O)OC(C)(C)O[C@@H]23)O1`, the inhibition constant Ki on Carbonic anhydrase 4, on Carbonic anhydrase 2 and on Carbonic anhydrase 1 was over 100 µM in each case.
